# How the values were obtained:
# [1] = system: AP-1; assay: Inhibition of the TPA-induced activation of AP-1, 293T/AP-1-luc luciferase reporter cell assay; assay type: cell-based, human; conditions: 293T/AP-1-luc cells, TPA 10 ng/ml, 24 hours; for IC50: Homo sapiens
# Experimental: An AP-1 reporter stable cell line derived from human 293T embryonic kidney cells transfected with a luciferase reporter construct containing three AP-1 binding sites in the promoter (293T/AP-1-luc, Panomics, Inc., Redwood City, Calif.) was grown in a humidified atmosphere at 37° C. in 5% CO2/95% air. The cells were maintained in Dulbecco's Modified Eagle's Medium (DMEM—high glucose containing 4 mM glutamine) supplemented with 10% fetal bovine serum (FBS), 1 mM sodium pyruvate, 100 units/ml penicillin, 100 μg/ml streptomycin and 100 μg/ml hygromycin (Gibco/Invitrogen, Carlsbad, Calif.) to maintain cell selection. One day prior to treatment, the 293T/AP-1-luc cells were plated into 24-well cell culture plates (Costar, Cambridge, Ma.) in the above media without hygromycin. The following day, the cells, which were at approximately 60% confluency, were fed fresh media with or without TPA, 10 ng/ml, (Calbiochem) and immediately treated with curcumin or analog prepared in DMSO stock solutions. The cells were placed again in a humidified atmosphere at 37° C. in 5% CO2/95% air for 24 hours. Plate wells were gently washed with phosphate buffered saline, pH 7.4, and lysed with 1x passive lysis buffer (Promega, Madison, Wis.). The subsequent lysates were analyzed with the Luciferase Assay System (Promega) utilizing a TD-20/20 luminometer (Turner Designs, Sunnyvale, Calif.). The firefly luciferase relative light units were normalized to protein (mg/ml) with BCA™ Protein Assay Kit (Pierce, Rockford, Ill.) and standardized to percent of control (TPA control).
# [2] = system: NF-κB; assay: Inhibition of the TNFα-induced activation of NF-κB, 293T/NF-κB-luc luciferase reporter cell assay; assay type: cell-based, human; conditions: 7 hours; for activity as inhibitor of the TNFα-induced activation of NF-κB in the preliminary screen: screened at 15 μM, FIGS. 1-5; for IC50: Homo sapiens, HEK-293T, 293T/NF-κB-luc cells, TNFα 20 ng/ml, triplicate, read-out: IC50 for inhibition of the TNFα-induced activation of NFκB
# Experimental: The cells were maintained in Dulbecco's Modified Eagle's Medium (DMEM—high glucose containing 4 mM glutamine) supplemented with 10% fetal bovine serum (FBS), 1 mM sodium pyruvate, 100 units/ml penicillin, 100 μg/ml streptomycin and 100 μg/ml hygromycin (Gibco/Invitrogen, Carlsbad, Calif.) to maintain cell selection. […] The following day cells were fed fresh media 1 hour prior to treatment. […] Plate wells were gently washed with phosphate buffered saline, pH 7.4, and lysed with 1x passive lysis buffer (Promega, Madison, Wis.). The subsequent lysates were analyzed with the Luciferase Assay System (Promega) utilizing a TD-20/20 luminometer (Turner Designs, Sunnyvale, Calif.). The firefly luciferase relative light units were normalized to protein (mg/ml) with BCA™ Protein Assay Kit (Pierce, Rockford, Ill.) and standardized to percent of control (TNFα control).
# [3] = system: COX-2 mRNA; assay: Inhibition of LPS-induced expression of COX-2 mRNA in BV-2 microglial cells (qRT-PCR); assay type: cell-based, mouse; conditions: BV-2 cells, LPS 0.2 μg/ml, 24 hours; for inhibition of LPS-induced COX-2 mRNA compared with resveratrol: 0.15 μM
# [4] = TRAP assay (total radical-trapping anti-oxidant parameter)
# Excerpt: (§1) The total radical-trapping anti-oxidant parameter assay (TRAP assay) measures the ability of an analog to react with the pre-formed radical monocation of 2,2′-azinobis-(3-ethylbenzothiazoline-6-sulfonic acid) (ABTS-^+). The ferric reducing/anti-oxidant power assay (FRAP assay) measures the ability of an analog to reduce a ferric tripyridyltriazine complex.
# (§2) In both colorimetric assays, the vitamin E analog Trolox was used as a control.
# (§3) The anti-oxidant activities of certain stilbene analogs according to the present invention were determined using two standard assays. See, Schlesier, et al., Free Rad Res. 2002;36:177-187. The total radical-trapping anti-oxidant parameter assay (TRAP assay) measures the ability of an analog to react with the pre-formed radical monocation of 2,2′-azinobis-(3-ethylbenzothiazoline-6-sulfonic acid) (ABTS^+). See, Re, et al., Free Rad Biol Med, 26:1231-1237 (1999). ABTS was reacted with potassium persulfate in the dark, overnight, to generate the colored ABTS^+ radical cation, which has an absorption maximum at 734 nm. The activities of curcumin and analogs were determined by their abilities to quench the color of the radical cation. The ferric reducing/anti-oxidant power assay (FRAP assay) measures the ability of an analog to reduce a ferric tripyridyltriazine complex. See, Benzie and Strain, Meth Enzymol, 299:15-27 (1999). The ferric complex of 2,4,6-tripyridyl-s-triazine was prepared at acidic pH, and the anti-oxidant activities of curcumin and analogs were determined by their abilities to reduce the ferric complex to the ferrous complex, monitored by formation of the ferrous complex at 593 nm. In both colorimetric assays, the vitamin E analog Trolox was used as a control.
# [5] = FRAP assay (ferric reducing/anti-oxidant power)
# Excerpt: as §1, §2
# as §3, with “ABTS was reacted with potassium persulfate in the dark, overnight, to generate the colored ABTS^+ radical cation, which has an absorption maximum at 734 nm.” left out, “The ferric reducing/anti-oxidant power assay (FRAP assay) measures the ability of an analog to reduce a ferric tripyridyltriazine complex. See, Benzie and Strain, Meth Enzymol, 299:15-27 (1999).” left out, “In both colorimetric assays, the vitamin E analog Trolox was used as a control.” left out
# [6] = system: NF-κB; conditions: cited from earlier work
IC50 [1] [nM],IC50 [2] [nM],Structure (SMILES),activity as inhibitor of the TNFα-induced activation of NF-κB in the preliminary screen [2],also measured
2100 ± 400,–,COc1ccc(/C=C/c2ccccn2)cc1,–,–
1300 ± 30,–,"COc1ccc(/C=C/c2ccccc2)cc1 [4b, (E)-4-Methoxystilbene]",especially active,–
1100 ± 100,150,"CN(C)c1ccc(/C=C/c2ccccc2)cc1 [4cc, (E)-4-N,N-Dimethylaminostilbene]",–,"inhibition of LPS-induced COX-2 mRNA compared with resveratrol [3]: almost as effective as 4 μM resveratrol; anti-oxidant activity in the TRAP assay [4]: exhibits anti-oxidant activity; anti-oxidant activity (TRAP or FRAP assay, not told apart) [4]: retained anti-oxidant activity; anti-oxidant activity in the FRAP assay [5]: exhibits anti-oxidant activity"
1600 ± 600,–,"Cc1ccc(/C=C/c2ccccc2)cc1 [4d, (E)-4-Methylstilbene]",–,–
800 ± 100,–,"CCOc1ccc(/C=C/c2ccccc2)cc1 [4k, (E)-4-Ethoxystilbene]",–,–
–,–,"COc1cccc(/C=C/c2ccccc2)c1OC [4o, (E)-2,3-Dimethoxystilbene]",retained very little activity,–
–,–,"COc1ccc(/C=C/c2ccccc2)cc1O [4s, (E)-3-Hydroxy-4-methoxystilbene]",considerably more active than resveratrol,–
–,–,"COc1ccc(/C=C/c2ccccc2)c(OC)c1 [4u, (E)-2,4-Dimethoxystilbene]",especially active,–
–,–,"COc1ccc(/C=C/c2ccc(OC)cc2)cc1 [6b, (E)-4,4′-Dimethoxystilbene]",retained very little activity,–
–,–,"COc1ccc(/C=C/c2cccc(O)c2O)cc1 [6cc, (E)-2,3-Dihydroxy-4′-methoxystilbene]",considerably more active than resveratrol,–
800 ± 30,900 ± 100,"COc1ccc(/C=C/c2ccc(C)cc2)cc1 [6d, (E)-4′-Methoxy-4-methylstilbene]",–,–
800 ± 150,1000 ± 100,"COc1ccc(/C=C/c2cccc(Cl)c2)cc1 [6h, (E)-3-Chloro-4′-methoxystilbene]",–,–
1000 ± 120,800 ± 200,"COc1ccc(/C=C/c2cccc(C)c2)cc1 [6i, (E)-4′-Methoxy-3-methylstilbene]",–,–
–,1500 ± 30,"COc1ccc(/C=C/c2ccccc2Cl)cc1 [6j, (E)-2-Chloro-4′-methoxystilbene]",–,–
500 ± 100,–,"COc1ccc(/C=C/c2cccc(F)c2)cc1 [6n, (E)-3-Fluoro-4′-methoxystilbene]",–,–
2400 ± 700,–,"COc1ccc(/C=C/c2cccc(OC)c2OC)cc1 [6o, (E)-2,3,4′-Trimethoxystilbene]",especially active,–
800 ± 100,150,"COc1ccc(/C=C/c2ccccc2F)cc1 [6p, (E)-2-Fluoro-4′-methoxystilbene]",–,"inhibition of LPS-induced COX-2 mRNA compared with resveratrol [3]: almost as effective as 4 μM resveratrol; anti-oxidant activity (TRAP or FRAP assay, not told apart) [4]: does not exhibit anti-oxidant activity"
700 ± 40,600 ± 100,"COc1ccc(/C=C/c2cccc(OC)c2)cc1 [6r, (E)-3,4′-Dimethoxystilbene]",especially active,–
–,600 ± 400,"COc1ccc(/C=C/c2ccc(O)c(O)c2)cc1 [6x, (E)-3,4-Dihydroxy-4′-methoxystilbene]",considerably more active than resveratrol,–
–,–,C(=Cc1ccccc1)c1ccccc1 [stilbene],–,inhibition of TNF-induced activation of NF-κB (literature) [6]: inactive

Structure (SMILES),IC50 [1] [nM],IC50 [2] [nM],activity as inhibitor of the TNFα-induced activation of NF-κB in the preliminary screen [2],also measured
"COc1ccc(/C=C/c2cc(OC)cc(OC)c2)cc1 [6f, (E)-3,4′,5-Trimethoxystilbene]",3800 ± 1100,–,especially active,–
"Oc1ccc(/C=C/c2cc(O)cc(O)c2)cc1 [resveratrol, 3,4′,5-trihydroxystilbene, reference compound]",–,20000 ± 3000,–,inhibition of LPS-induced COX-2 mRNA ([3]; 4 μM): about 50%; suppression of LPS-induced COX-2 mRNA ([3]; 20 μM): markedly suppressed; inhibition of TNF-induced activation of NF-κB (literature) [6]: inhibits TNF-induced activation of NF-κB; effect on TPA-induced AP-1 activation [1]: activated

# From US8980954B2, “Substituted cis- and trans-stilbenes as therapeutic agents” (STC.UNM, priority 2006, dated 2015)
